Laboratory results: patent US20250152605A1, “METHOD AND DRUG FOR TREATING NEURONAL CEROID LIPOFUSCINOSIS” (priority 2021, published 2025)
“Also recorded” adds a separate entry of the source.

Assays:
Cln3 KO mice = test: Morris water maze; type: in vivo, mouse; details: 7th day test
Description: To test the difference in learning and memory abilities of Cln3 KO mice and wild-type mice, and the effect of Compound G on learning and memory abilities of Cln3 KO mice, a Morris water maze was performed, with specific procedures as follows: the mice to be tested were kept in single cages for more than 1 week to adapt to the environment; the maze used in this study was a circular pool with a diameter of 120 cm and a depth of 40 cm; the pool wall is divided into four quadrants including northeast (NE), northwest (NW), southwest (SW) and southeast (SE) with circles, squares, triangles and crosses respectively. The platform was placed at a fixed position in the SW quadrant with a diameter of 11 cm and a height of 18 cm; milky white water containing titanium dioxide was added to the pool, the amount of added water being just short of the platform is suitable; the water temperature was adjusted to about 22° C.; the mouse was gently put into the water from the designated position shown in Table 5, and the movement of the mouse within 60 seconds was recorded through the video equipment. If the mouse found the platform within 60 seconds, its time to find the platform was recorded; if the mouse could not find the platform within 60 seconds, it was guided to the platform and held for 15 seconds.
The mice were removed from the platform, wiped clean with a dry towel and returned to their cages. Each mouse was trained 4 times a day, with a 30-minute interval between each training, for a total of 6 days, and mice that cannot swim were excluded; on the Day 7, the platform in the water was taken out, and then the mice were gently put into the water from the NE direction, and the movement of the mouse within 60 seconds was recorded with a video equipment. The time it took for the mouse to find the platform for the first time and the time the mouse stayed in the SW quadrant were analyzed and counted using Noldus software. In addition, the experimenter manually counted the number of times the mouse crossed the location of the original platform within 60 seconds.
Starting from day 21 on which the Cln3 KO mice were weaned, treatment of Compound G was continuously provided. […]
First, the mice were trained in the water maze for 6 days, and the time it took for them to find the underwater platform was recorded. […] The time that the mice spent reaching the position of the original platform for the first time, the number of shuttles at the position of the original platform and the time stayed in the quadrant of the original platform were recorded, which characterized whether they have learned the position of the underwater platform through the first 6 days of training.

[1] = test system: APP-gene mutant human neurons; test: Human neuron model of Alzheimer's dementia (Aβ immunofluorescence, Aβ42 ELISA); type: cell-based
Excerpt: FIG. 44: Compound G reduced Aβ protein storage and secretion levels of toxic Aβ42 in APP mutant neurons. (a) Immunofluorescence staining, for detecting Compound G-treated APP mutant neurons for abnormal accumulation of Aβ protein and (b) statistics of Aβ plaque area, and the scale bar was 50 μm. (c) ELISA tests, for measuring the effect of Compound G on the secretion level of toxic Aβ42 of APP mutant neurons.
The present disclosure detected the therapeutic effect of the treatment of Compound G on Alzheimer's dementia. We directed the differentiation of human embryonic stem cells with mutations in APP gene into human neurons in vitro and constructed an in vitro human neuron model of Alzheimer's dementia.

mouse neural stem cells = test: qRT-PCR of autophagy and lysosome-related genes in mouse neural stem cells; type: cell-based; details: 6 hours
Description: The cells in the cell-culture dish were collected, extracted using AxyPrep Total RNA Mini Prep Kit or Qiagen AxyPrep Total RNA Mini Prep Kit, and the extracted RNA concentration is measured using Nanodrop; the extracted mRNA was reverse transcribed into cDNA by Transgen's EasyScript® One-Step gDNA Removal and cDNA Synthesis SuperMix and the primers used for reverse transcription were Oligo dT primers; the completion of reverse transcription followed by qRT-PCR reaction through PerfectStart™ Green qPCR SuperMix to detect the expression of the target gene; the qRT-PCR reaction was performed on the Bio-Rad CFX96 Real-Time PCR system; see Table 2 and Table 3 for the 20 μL qRT-PCR reaction system and reaction procedures; data analysis was performed in Prism 7 software using the 2^−ΔΔCt process with GAPDH as internal reference for relative quantification of the expression of the target gene.
After treating primary (a) neural stem cells and (b) neurons of Cln3 KO) mice for 6 hours, the mRNA was extracted from the cells, reverse-transcribed into cDNA, and transcription levels of autophagy- and lysosome-related genes were detected using qRT-PCR (n=3).
It was speculated from this that the known target FXR of Compound G was expressed at low or no levels in neural lineage cells. […]

CLN3^Δex7/8 neurons = test: Mitochondrial morphology with OMP25-GFP, laser confocal microscope; type: cell-based, human
Excerpt: Studies have shown that healthy mitochondria have a short stick-like morphology, with large potential differences across the mitochondrial membrane, which allows efficient generation of ATP that maintains normal cellular function. Damaged mitochondria undergo the process of mitochondrial fission, in which the mitochondria split into a punctate morphology, encapsulated by autophagosome, and transported into lysosomes for degradation. To detect the presence of abnormal mitochondrial morphology in CLN3^Δex7/8 human neurons, a Lentivirus plasmid with green fluorescent protein labeled OMP25 was constructed and used to infect wild-type and CLN3^Δex7/8 human neurons
To test the effect of compound G on mitochondrial homeostasis in CLN3^Δex7/8 neurons, fluorescently labeled mitochondrial outer membrane protein OMP25-GFP was overexpressed in neurons, and the morphological changes of mitochondria were observed by laser confocal microscope. […] The amount of ATP generation in the same number of neurons was tested using Cell Titer Glo reagent.

C/C=C1\C(=O)C[C@H]2[C@@H]3CCC4=CC(=O)CC[C@]4(C)[C@H]3CC[C@]12C [Compound G, (Z)-guggulsterone]
movement speed of the mice in water (Cln3 KO mice): no significant effect
number of times they shuttle at the position of the original platform (Cln3 KO mice): closer to that of the wild-type mice
time spent reaching the position of the original platform for the first time (Cln3 KO mice): effectively shorten
time stayed in the quadrant of the original platform (Cln3 KO mice): extended the time stayed in the quadrant of the original platform to a certain extent
deposition of Aβ plaques [1]: significant reduction
level of toxic Aβ42 secreted by the cells into the culture medium ([1]; ELISA): significant reduction
expression level of the autophagy and lysosome-related genes (mouse neural stem cells): no significant change
damaged punctate mitochondria (CLN3^Δex7/8 neurons): significantly reduce the occurrence of damaged punctate mitochondria; also recorded: significantly reduce the appearance of the damaged mitochondria
